# Laboratory results from PubChem BioAssay (NCI).
#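 Grown in 96-well plates, cells were treated for 48 hours with each compound at five concentrations. Insufficient inhibition: endpoint recorded as highest concentration tested. GI50: concentration for 50% inhibition of growth. TGI: concentration producing complete growth inhibition.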
# Experiments:
# Experiment in all cases: NCI-60 cell line screen, 48 h
# [1] = tested on: HCT-116 colon
# [2] = tested on: OVCAR-8 ovarian
# [3] = tested on: SF-268 CNS
# [4] = tested on: KM12 colon
# [5] = tested on: LOX IMVI melanoma
# [6] = tested on: HT29 colon
# [7] = tested on: M14 melanoma
# [8] = tested on: T-47D breast
# [9] = tested on: UO-31 renal
# [10] = tested on: BT-549 breast
compound,measurement,setting,value
O=C1CCC2(O)c3ccccc3C2Cc2ccccc21 (stereo not drawn),TGI,[1],> 100 µM
same,TGI,[2],> 100 µM
same,TGI,[3],> 100 µM
same,TGI,[4],> 100 µM
same,TGI,[5],> 100 µM
same,TGI,[6],> 100 µM
CCOP(=O)(OCC)C(Nc1ccc(Cl)cc1)c1ccc(F)cc1 (stereo not drawn),TGI,[1],44.5 µM
same,TGI,[2],> 100 µM
same,TGI,[3],61.2 µM
same,TGI,[4],> 100 µM
same,TGI,[5],29.1 µM
same,TGI,[7],37.2 µM
same,TGI,[6],62.9 µM
same,TGI,[8],40.8 µM
same,TGI,[9],59.9 µM
COC(=O)/C1=C/C=C\C[C@@]2(C)CC(c3ccoc3)OC(=O)[C@@H]2CC[C@H]1C (stereo partly drawn),TGI,[1],> 25 µM
same,TGI,[10],> 25 µM
same,TGI,[2],> 25 µM
same,TGI,[4],> 25 µM
same,TGI,[5],> 25 µM
same,TGI,[7],> 25 µM
same,TGI,[6],> 25 µM
same,TGI,[9],> 25 µM
CCCN=C1NC(C)=CSC(Nc2ccccc2)=C1C#N,TGI,[1],> 100 µM
same,TGI,[2],> 100 µM
same,TGI,[3],> 100 µM
same,TGI,[4],> 100 µM
same,TGI,[7],> 100 µM
same,TGI,[8],> 100 µM
same,TGI,[9],> 100 µM
COC(=O)N[C@@H]1C[C@H]2CC[C@]1(O[Si](C(C)C)(C(C)C)C(C)C)C(=O)C2,TGI,[1],> 100 µM
same,TGI,[2],63.4 µM
same,TGI,[3],28.6 µM
same,TGI,[4],52.1 µM
same,TGI,[7],62.8 µM
same,TGI,[6],47.8 µM
same,TGI,[8],> 100 µM
same,TGI,[9],32 µM
Cc1cn(C2CC(O)C(Cn3nncc3Cn3nc(Br)c(=O)[nH]c3=O)O2)c(=O)[nH]c1=O (stereo not drawn),TGI,[1],> 100 µM
same,TGI,[10],> 100 µM
same,TGI,[2],> 100 µM
same,TGI,[3],> 100 µM
same,TGI,[4],> 100 µM
same,TGI,[5],> 100 µM
same,TGI,[7],> 100 µM
same,TGI,[8],> 100 µM
same,TGI,[9],> 100 µM
O=c1c(O)c(-c2ccccc2)oc2c(CP(=O)(O)O)cccc12,TGI,[1],> 100 µM
same,TGI,[10],> 100 µM
same,TGI,[7],> 100 µM
same,TGI,[8],> 100 µM
CCCCCc1cc2cc3c(c(O)c2c(=O)[nH]1)C1(CCC3)C(=O)c2c(O)ccc(O)c2C1=O,TGI,[1],> 100 µM
same,TGI,[10],> 100 µM
same,TGI,[2],> 100 µM
same,TGI,[3],> 100 µM
same,TGI,[4],> 100 µM
same,TGI,[5],> 100 µM
same,TGI,[7],> 100 µM
same,TGI,[6],> 100 µM
same,TGI,[9],> 100 µM
O=C(O)c1cc(NCc2cc(O)ccc2O)ccc1O,TGI,[1],> 100 µM
same,TGI,[10],> 100 µM
same,TGI,[3],> 100 µM
same,TGI,[4],> 100 µM
same,TGI,[7],> 100 µM
same,TGI,[6],> 100 µM
same,TGI,[8],> 100 µM
same,TGI,[9],> 100 µM
Cc1ccc(C)n1-c1ccccc1C1C=Cn2c(=O)oc3c(OC(C)C)c(OC(C)C)c(O)c1c32 (stereo not drawn),TGI,[1],> 100 µM
same,TGI,[10],> 100 µM
same,TGI,[2],> 100 µM
same,TGI,[3],> 100 µM
same,TGI,[4],> 100 µM
same,TGI,[5],38.4 µM
same,TGI,[7],> 100 µM
same,TGI,[6],> 100 µM
same,TGI,[9],31.9 µM
Cc1cc(C)[n+]2c(c1)C=CC2,TGI,[2],> 100 µM
same,TGI,[3],> 100 µM
same,TGI,[4],> 100 µM
same,TGI,[5],> 100 µM
same,TGI,[7],> 100 µM
same,TGI,[6],> 100 µM
same,TGI,[9],> 100 µM
COc1cc(C2c3cccc4cccc(c34)C3CCC(=O)N32)cc(OC)c1O (stereo not drawn),TGI,[1],> 50 µM
same,TGI,[10],> 50 µM
same,TGI,[2],> 50 µM
same,TGI,[4],> 50 µM
same,TGI,[7],> 50 µM
same,TGI,[6],> 50 µM
same,TGI,[8],> 50 µM
same,TGI,[9],> 50 µM
COC1C(O)C(C)OC(O[C@H]2CC[C@@]3(C)C(CC[C@@H]4[C@@H]3CC[C@]3(C)[C@@H](C(C)OC5OC(CO)C(O)C(O)C5O)CC[C@]43O)C2)C1O (stereo partly drawn),TGI,[1],> 25 µM
same,TGI,[2],> 25 µM
same,TGI,[3],> 25 µM
same,TGI,[4],> 25 µM
same,TGI,[5],> 25 µM
same,TGI,[7],> 25 µM
same,TGI,[6],> 25 µM
same,TGI,[9],> 25 µM
CC1(C)CC(=O)c2c(N)n[nH]c2C1,TGI,[1],> 100 µM
same,TGI,[10],> 100 µM
same,TGI,[2],> 100 µM
same,TGI,[4],> 100 µM
same,TGI,[5],> 100 µM
same,TGI,[7],> 100 µM
same,TGI,[6],> 100 µM
same,TGI,[9],> 100 µM
COC(=O)/C=C1\C(CO[Si](C)(C)C(C)(C)C)OC(n2cc(C)c(=O)n(C)c2=O)C1O[Si](C)(C)C(C)(C)C (stereo not drawn),TGI,[1],> 100 µM
same,TGI,[2],> 100 µM
same,TGI,[3],> 100 µM
same,TGI,[4],> 100 µM
same,TGI,[5],> 100 µM
same,TGI,[7],> 100 µM
same,TGI,[6],> 100 µM
same,TGI,[9],> 100 µM
Clc1ccc(C2SCc3nc4ccccc4n32)cc1 (stereo not drawn),TGI,[2],> 100 µM
same,TGI,[3],88.4 µM
same,TGI,[5],40.6 µM
same,TGI,[7],68.1 µM
same,TGI,[6],49.4 µM
same,TGI,[9],41.7 µM
[N-]=[N+]=Nc1cc(=O)[nH]c2ccccc12,TGI,[1],> 100 µM
same,TGI,[10],> 100 µM
same,TGI,[2],> 100 µM
same,TGI,[3],> 100 µM
same,TGI,[4],> 100 µM
same,TGI,[7],> 100 µM
same,TGI,[6],> 100 µM
same,TGI,[8],> 100 µM
same,TGI,[9],> 100 µM
Cc1ccc(/C=c2\c(=O)[nH]c3nc4ccccc4c(=O)n23)cc1,TGI,[1],> 100 µM
same,TGI,[10],60.3 µM
same,TGI,[2],> 100 µM
same,TGI,[3],> 100 µM
same,TGI,[4],> 100 µM
same,TGI,[5],> 100 µM
same,TGI,[7],> 100 µM
same,TGI,[8],> 100 µM
same,TGI,[9],> 100 µM
CCN(CC)/N=C\c1c2ccccc2cc2ccccc12,TGI,[1],> 100 µM
same,TGI,[10],> 100 µM
same,TGI,[2],> 100 µM
same,TGI,[3],> 100 µM
same,TGI,[4],> 100 µM
same,TGI,[7],51.6 µM
same,TGI,[6],88.3 µM
same,TGI,[8],> 100 µM
same,TGI,[9],> 100 µM
COCC(C#N)NC1CC(OC2CC(O)(C(=O)CO)Cc3c(O)c4c(c(O)c32)C(=O)c2c(OC)cccc2C4=O)OC(C)C1O (stereo not drawn),TGI,[10],0.653 µM
same,TGI,[2],0.549 µM
same,TGI,[3],0.691 µM
same,TGI,[4],0.77 µM
same,TGI,[5],0.599 µM
same,TGI,[7],0.774 µM
same,TGI,[6],9.03 µM
same,TGI,[9],2.77 µM
COc1ccc(C2N(c3ccc(C)c(N=C=O)c3)C(=O)N3C(c4ccc(OC)cc4)N(c4ccc(C)c(N=C=O)c4)C(=O)N23)cc1 (stereo not drawn),TGI,[1],> 100 µM
same,TGI,[10],> 100 µM
same,TGI,[2],> 100 µM
same,TGI,[3],> 100 µM
same,TGI,[4],> 100 µM
same,TGI,[5],> 100 µM
same,TGI,[7],> 100 µM
same,TGI,[6],> 100 µM
same,TGI,[9],> 100 µM
Cc1ccc2sc3c(NCCCN)nc4ccccc4c3c(=O)c2c1,GI50,[1],1.8 µM
same,TGI,[1],3.42 µM
same,GI50,[10],16.5 µM
same,TGI,[10],37.4 µM
same,GI50,[2],2.41 µM
same,TGI,[2],5.91 µM
same,GI50,[3],1.74 µM
same,TGI,[3],3.45 µM
same,GI50,[4],1.9 µM
same,TGI,[4],3.51 µM
same,GI50,[5],1.66 µM
same,TGI,[5],3.08 µM
same,GI50,[7],1.91 µM
same,TGI,[7],3.61 µM
same,GI50,[8],1.89 µM
same,TGI,[8],4.57 µM
same,GI50,[9],1.51 µM
same,TGI,[9],2.98 µM
OCc1ccc2c(c1)CC1(Cc3ccccc3C1)C2,TGI,[1],35.5 µM
same,TGI,[10],24.1 µM
same,TGI,[2],> 100 µM
same,TGI,[3],40.9 µM
same,TGI,[4],57.3 µM
same,TGI,[5],29.7 µM
same,TGI,[6],33.6 µM
same,TGI,[8],> 100 µM
same,TGI,[9],29.1 µM
